# Experiment: hydroxyapatite (HA) binding in vitro study (bone mineral affinity)
# Procedure: To evaluate the bone mineral affinity of the GLP-1 conjugate described in Example 1, hydroxyapatite (HA) binding in vitro studies were conducted. Briefly, 10 μg of GLP-1 or equivalent amount of GLP-1 conjugate was mixed with 5 mg of HA powder in 500 μL of the binding buffer with various concentrations (double-distilled water (D.D.), 10 mM PBS [pH 7.4], 50 mM PBS [pH 7.4], acetate buffer [pH 4]) . Similarly, tubes containing an equivalent amount of GLP-1 or GLP-1 conjugate in corresponding buffers without HA were used as a negative control. Mixtures were shaken gently at room temperature for 1 hour and then were centrifuged at 10,000 g for 5 minutes. The supernatant was separated and assayed for unbound drug, using a fluorescence spectrometer (λEx 215 nm, λEm 305 nm). The percentage of HA binding was calculated as:
# (Intensity of control−the intensity of supernatants)/Intensity of control×100%
# Each experiment was measured in triplicate.
substance,measurement,setting,value
H-HAE GTF TSD VSS YLE GQA A-K(Mal-PEGn-BP)-E FIA WLV KGR —NH2 [GLP-1 conjugate],effect of pH and phosphate ion concentration on HA binding capacity,acidic pH (Acetate buffer pH 4 vs PBS pH 7.4) and lower buffer concentration (10 mM vs 50 mM),higher binding
same,binding capacity to HA compared with plain GLP-1 peptide,"various medium (D.D. water, 10 mM PBS pH 7.4, 50 mM PBS pH 7.4, acetate buffer pH 4), 5 mg HA, 1 hour, room temperature, p<0.01",significantly different binding capacity to HA
